Consider 48 molecules from the Deep4Chem optical property database.

This data set is described as follows: photoluminescence quantum yield (fraction); solvent given as SMILES.

Take `Cc1ccc(C2=C3C=CC(Cl)=[N+]3[B-](F)(F)n3c(Cl)ccc32)cc1`: the photoluminescence quantum yield is 0.33 (in C1CCCCC1); 0.3 (in C1CCOC1); 0.29 (in CC#N); 0.32 (in CCOC(C)=O); 0.27 (in CO); 0.59 (in Cc1ccccc1). Where the note is “in ClC(Cl)Cl”, this molecule came in with a photoluminescence quantum yield of 0.63.

`CC1(C)C(/C=C/C2=C(Oc3ccc(CCN=C=S)cc3)C(=C/C=C3/N(CCCS(=O)(=O)[O-])c4ccccc4C3(C)C)/CCC2)=[N+](CCCS(=O)(=O)[O-])c2ccccc21` showed a photoluminescence quantum yield (in CO) of 0.07.

Under “in CC#N”, `COc1ccc(-n2nc(C#N)c(N3CCC(N4CCCCC4)CC3)n2)cc1` gave a photoluminescence quantum yield of 0.156.

Regarding `CCN(CC)c1ccc2cc(/C=C/C(O)=C/C(C)=O)c(=O)oc2c1`, the photoluminescence quantum yield is 0.36 (in CC#N); 0.46 (in CC(C)=O); 0.5 (in CCOC(C)=O); 0.35 (in CO); 0.39 (in CS(C)=O); 0.66 (in Cc1ccccc1). This molecule registered a photoluminescence quantum yield (in ClC(Cl)Cl) of 0.53 and a photoluminescence quantum yield (in ClCCl) of 0.52.

Consider `COc1nc(Cl)nc(Nc2ccc3c4cccc5cccc(c6cccc2c63)c54)n1`, for which the photoluminescence quantum yield is, setting by setting: (in C1COCCO1) 0.4; (in CC#N) 0.32; (in CCCCOCCCC) 0.37; (in CCOC(C)=O) 0.33.

For the setting “in C1CCOC1”, `O=C(c1ccc(C(=C(c2ccccc2)c2ccccc2)c2ccccc2)cc1)c1ccc(-n2c3ccccc3c3ccccc32)cc1` yielded a photoluminescence quantum yield of 0.208.

As for `Cc1ccc(N(c2ccc(C)cc2)c2ccc3c4cccc5c(N(c6ccc(C)cc6)c6ccc(C)cc6)ccc(c6cccc2c63)c54)cc1`, the photoluminescence quantum yield (in ClCCl) was 0.61.

Turning to `CCOC(=O)C1=CN(c2ccccc2)C=C(C(=O)OCC)C1`, the photoluminescence quantum yield (in C1CCOC1) was determined as 0.2 and the photoluminescence quantum yield (in CO) amounted to 0.16.

Take `c1ccc(-c2cc(-c3ccccc3)cc(-c3ccc4c(c3)C3(c5ccccc5-4)c4ccccc4-c4c3c3c5ccccc5c(-c5cc(-c6ccccc6)cc(-c6ccccc6)c5)cc3c3ccccc43)c2)cc1` (stereo not given): the photoluminescence quantum yield (in Cc1ccccc1) is 0.87.

Turning to `CCN(CC)c1ccc2cc(-c3ccc(-c4ccc5ccc6c(-c7ccc(-c8cc9ccc(N(CC)CC)cc9oc8=O)cc7)ccc7ccc4c5c76)cc3)c(=O)oc2c1`, the photoluminescence quantum yield (in ClC(Cl)Cl) is 0.893.

Consider `CC1=C(c2ccc(N(C)C)cc2)C(C)=[N+]2C1=C(c1c(-c3ccccn3)nc3ccccn13)c1c(C)cc(C)n1[B-]2(F)F`, for which the photoluminescence quantum yield (in ClCCl) came to 0.0041.

`COc1ccc(C2=C3C=CC(=[N+](C)C)C=C3[Si](C)(C)c3cc(N(C)C)ccc32)c(C)c1` had a photoluminescence quantum yield (in O) of 0.29.

Molecule `O=C1c2ccccc2-c2c(-c3cc(Cl)ccc3O)[nH]c(=O)n21` gave a photoluminescence quantum yield (in CC#N) of 0.61, a photoluminescence quantum yield (in CO) of 0.28 and a photoluminescence quantum yield (in ClCCl) of 0.78.

`CC(=O)OC[C@H]1O[C@@H](OCC#Cc2ccc(C3=C4C(C)=CC(/C=C/c5ccc(N(C)C)cc5)=[N+]4[B-](F)(F)n4c(/C=C/c5ccc(N(C)C)cc5)cc(C)c43)cc2)[C@H](OC(C)=O)C(OC(C)=O)[C@@H]1OC(C)=O` (stereo not given in full): under “in CC#N”, the photoluminescence quantum yield worked out at 0.2.

`COc1cc(C2=c3c(c4ccc(C(C)(C)C)cc4c4c(OC)c(OC)c(OC)cc34)=[N+]3C2=Nc2c(-c4cc(OC)c(OC)c(OC)c4)c4c5cc(OC)c(OC)c(OC)c5c5cc(C(C)(C)C)ccc5c4n2[B-]3(F)F)cc(OC)c1OC` had a photoluminescence quantum yield (in Cc1ccccc1) of 0.001.

`N#Cc1nn(-c2cccc(C(F)(F)F)c2)nc1N1CCCC1` returned a photoluminescence quantum yield (in CC#N) of 0.801.

For `Oc1ccccc1-c1nc(-c2ccccc2)c(-c2ccccc2)[nH]1`, the photoluminescence quantum yield (in CO) is 0.25.

Regarding `Oc1ccc(Br)cc1-c1nc2c(c3c1-c1ccccc1CC3)-c1ccccc1CC2`, under “in ClCCl”, the photoluminescence quantum yield is 0.01.

The molecule `Cc1ccc(-c2ccc(C(=O)NC(C)(C)C)c3c2ccc2c4ccccc4c4ccccc4c23)cc1` gave a photoluminescence quantum yield (in ClCCl) of 0.07.

Regarding `CCC(C)(C)c1ccc2c(c1)C(CC)(CC)c1cc(-c3ccc4c(c3)C(CC)(CC)c3cc(C(C)(C)CC)ccc3-4)ccc1-2`, the photoluminescence quantum yield (in C1CCCCC1) came out at 0.85.

As to `CCOC(=O)c1cc(C(=O)OCC)c2ccc(C)cc2n1`, the photoluminescence quantum yield (in CCO) stood at 0.019.

For the molecule `COc1ccc(C2=[N+]3C(=Nc4c(-c5cc(OC)c(OC)c(OC)c5)cc(-c5ccc(OC)cc5)n4[B-]3(F)F)C(c3cc(OC)c(OC)c(OC)c3)=C2)cc1`, under “in Cc1ccccc1”, the photoluminescence quantum yield was 0.24.

`Cc1ccccc1-c1ccccc1C` registered a photoluminescence quantum yield (in C1CCCCC1) of 0.01.

Regarding `COc1ccc2c3ccc(OC)cc3n(-c3ccc(-c4nnc(C)o4)cc3)c2c1`, where the note is “in Cc1ccccc1”, the photoluminescence quantum yield is 0.06.

Consider `COc1ccc(C2=CC(c3cc(OC)cc(OC)c3)=[O+][B-](F)(F)O2)cc1`, for which the photoluminescence quantum yield is, setting by setting: (in CC#N) 0.02; (in CC(C)=O) 0.04; (in CCCCCC) 0.25; (in Cc1ccccc1) 0.19; (in ClCCl) 0.08.

With `CCCCC(CC)CN1C(=O)c2cc(Oc3ccc(C(C)(C)C)cc3)c3c4c(Cl)cc5c6c(cc(Cl)c(c7c(Oc8ccc(C(C)(C)C)cc8)cc(c2c37)C1=O)c64)C(=O)N(c1c(C(C)C)cccc1C(C)C)C5=O` (stereo not given), the photoluminescence quantum yield (in Cc1ccccc1) was 0.72.

On to `CCCCCCCCCCCn1cccc1C1=[N+]2C(=Cc3c(C)cc(C)n3[B-]2(F)F)c2ccccc21`, for which the photoluminescence quantum yield was determined as 0.98 (in C1CCOC1); 0.99 (in CC#N); 0.99 (in CCCCCC); 0.96 (in CO); 0.99 (in Cc1ccccc1); 0.99 (in ClCCl).

For the molecule `COc1cccc(OC)c1-c1c2ccc(=[N+]3CCN(C(=O)OC(C)(C)C)CC3)cc-2oc2cc(N3CCN(C(=O)OC(C)(C)C)CC3)ccc12`, the photoluminescence quantum yield (in ClCCl) was 0.49.

With `CCCCCCCCCCOc1ccc(C#Cc2cc3c(C#Cc4ccc(OCCCCCCCCCC)cc4)c(C#Cc4ccc(OCCCCCCCCCC)cc4)c4cc(C#Cc5ccc(OCCCCCCCCCC)cc5)cc5c(C#Cc6ccc(OCCCCCCCCCC)cc6)c(C#Cc6ccc(OCCCCCCCCCC)cc6)c(c2)c3c45)cc1`, under “in ClCCl”, the photoluminescence quantum yield is 0.44.

Molecule `CC(C)(C)c1ccc2c(c1)c1cc(C(C)(C)C)ccc1n2-c1ccc(S(=O)(=O)c2ccc(-n3c4ccc(C(C)(C)C)cc4c4cc(C(C)(C)C)ccc43)cc2)cc1` had a photoluminescence quantum yield (in Cc1ccccc1) of 0.69.

With `CCOC(=O)/C(C#N)=C/c1cc2c3ccccc3n(C)c2cc1OC`, the photoluminescence quantum yield is, setting by setting: (in C1CCOC1) 0.001; (in CC#N) 0.003; (in CCOC(C)=O) 0.004; (in CN(C)C=O) 0.005; (in CO) 0.003; (in CS(C)=O) 0.01. Also, the photoluminescence quantum yield is, setting by setting: (in Cc1ccccc1) 0.003; (in ClC(Cl)Cl) 0.004; (in ClCCl) 0.003.

In the case of `Cc1cc(C)c2nc3c(=O)[nH]c(=O)[nH]c3nc2c1`, the photoluminescence quantum yield (in CC#N) worked out at 0.02.

Consider `CCN1c2ccc(C3=CC(c4ccccc4)=[O+][B-](F)(F)O3)cc2Sc2cc(C3=CC(c4ccccc4)=[O+][B-](F)(F)O3)ccc21`, for which the photoluminescence quantum yield (in ClCCl) was 0.46.

Take `c1ccc(-n2cccc2)cc1`: the photoluminescence quantum yield reads like this: (in CC#N) 0.17; (in CCCCCC) 0.24.

Regarding `CCCCc1ccc2ccc3c(CCCC)ccc4ccc1c2c43`, the photoluminescence quantum yield reads like this: (in CCCCCC) 0.47; (in CO) 0.6; (in ClCCl) 0.36.

In the case of `C[SiH]1c2ccccc2-c2cc3c(cc21)-c1ccccc1[SiH]3C` (stereo not given), the photoluminescence quantum yield (in ClCCl) came out at 0.5.

With `Oc1cc(-c2cccs2)ccc1-c1nc2ccccc2s1`, the photoluminescence quantum yield by setting is: (in CCO) 0.1; (in ClCCl) 0.0937; (in O) 0.01.

In the case of `c1cc2c3c(cccc3c1)NC(c1ccc3ccc4cccc5ccc1c3c45)N2`, the photoluminescence quantum yield (in CC#N) amounted to 0.24, the photoluminescence quantum yield (in CO) was determined as 0.05, the photoluminescence quantum yield (in CS(C)=O) is 0.08 and the photoluminescence quantum yield (in Cc1ccccc1) turned out to be 0.51.

For `CC1=[N+]2C(=C(c3ccc(C=O)cc3)c3ccc(C)n3[B-]2(F)F)C=C1c1cc2n(c1)[B-](F)(F)[N+]1=CC=CC1=C2c1c(C)cc(C)cc1C`, the photoluminescence quantum yield is 0.92 (in C1CCCCC1) and 0.2 (in CCOC(C)=O).

For the molecule `F[B-]1(F)n2c(c3cccc4cccc2c43)=Nc2sc3ccccc3[n+]21`, the photoluminescence quantum yield stood at 0.89 (in C1CCOC1); 0.97 (in CC#N); 0.87 (in CCCCCC); 0.76 (in Cc1ccccc1); 0.85 (in ClCCl).

The molecule `C[Si]1(C)O[Si](C)(C)c2cc3c(-c4ccccc4)c4cc(Cl)ccc4nc3cc21` gave a photoluminescence quantum yield (in ClCCl) of 0.34.

Under “in ClC(Cl)Cl”, `c1csc(-c2ccc(-c3cccs3)c3nsnc23)c1` yielded a photoluminescence quantum yield of 0.59.

As for `COc1ccc2nc(N)n[n+]([O-])c2c1`, the photoluminescence quantum yield (in CC#N) turned out to be 0.472 and the photoluminescence quantum yield (in O) turned out to be 0.0868.

`COc1ccc2c3c(c4ccc(OC)cc4c2c1)C(C)(C)c1ccc2ccccc2c1-3`: where the note is “in C1CCCCC1”, the photoluminescence quantum yield worked out at 0.26.

As to `COc1ccc(-n2nc(C#N)c(N3CCCCCC3)n2)cc1`, the photoluminescence quantum yield (in CC#N) stood at 0.98.

On to `CN1/C(=C/C=C(/C=C/c2sc3ccccc3[n+]2C)c2cc(F)cc(F)c2)Sc2ccccc21`, for which the photoluminescence quantum yield came to 0.1 (in CCO), 0.08 (in CO) and 0.18 (in CS(C)=O).

Turning to `CC(C)(C)c1cc(-c2c3cccc4c5cccc6c(-c7cc(C(C)(C)C)cc(C(C)(C)C)c7)c7cccc8c9cccc2c9c(c34)c(c65)c78)cc(C(C)(C)C)c1`, where the note is “in Cc1ccccc1”, the photoluminescence quantum yield stood at 0.81.

Consider `CCC1=C(C)C2=Cc3cccn3[B-](F)(F)[N+]2=C1C`, for which the photoluminescence quantum yield runs as follows: (in C1CCCCC1) 0.7; (in CC(C)=O) 0.65; (in CCO) 0.69; (in CCOC(C)=O) 0.69; (in CO) 0.6; (in OCC(F)(F)F) 0.49.
